The source of these data is patent US20100311748A1, “HETEROCYCLIC AMIDES USEFUL FOR THE TREATMENT OF CANCER AND PSORIASIS” (ASTRAZENECA AB, priority 2007, published 2010).

The experiment deals with Hedgehog pathway. Description: Hedgehog Pathway Cellular Differentiation Assay (alkaline phosphatase production in C3H10T1/2 cells with Shh ligand). The format is cell-based. The settings on record: Shh ligand conditioned media, 72 h, alkaline phosphatase; for inhibition at 3 µM: Mus musculus, C3H 10T1/2, 3 μM compound; for % Inhibition at 3 μM: 3 μM compound. How it is done:
Hedgehog Pathway Cellular Differentiation Assay The ability of compounds of the invention to inhibit the Hedgehog pathway can be determined by the following cell differentiation assay. C3H10T1/2 cells were plated into 384 well plates at a concentration of 5000 cells/well in DMEM/10% FBS. The following day the media was changed to 20% conditioned media (low serum media DMEM/2% FBS+Shh ligand). Compounds were solubilized in 100% DMSO to a concentration of 10 mM and then serially diluted three fold in 100% DMSO. The highest concentration in the cell plate was 30 μM and the lowest was 3 nM. The compounds were then added to the cells. Cell plates were incubated with the compound for 72 h and then assayed for alkaline phosphatase production using pNp as a substrate. Briefly, after 72 h of incubation, the media was aspirated from the cells and washed with 30 μl of PBS. PBS was aspirated off the cells and 15 μl of 1×RIPA cell lysis buffer is added on to the cells. The cell plates are then incubated at −80° C. for 30 minutes to insure proper cell lysis. The plates were then thawed back to RT. The substrate solution containing pNp at 1 mg/mL in diethanolamine buffer pH 9.8 was then added onto the lysed cells. The plates were incubated at 30° C. for color development and read at an absorbance of 405 nm. The percent inhibition and IC50 value was then calculated from the absorbance data using standard procedures.

By inhibition is commonly meant the change of the read-out against control, counted positive when it falls. Higher therefore signals strong suppression. For `Cc1ccc(-c2[nH]cnc2C)cc1NC(=O)c1ccc(OCc2ccccn2)cc1` [Example 27, N-[2-methyl-5-(4-methyl-1H-imidazol-5-yl)phenyl]-4-(pyridin-2-ylmethoxy)benzamide], the inhibition at 3 µM was found to be 76.6%. The same measure, in the same setting: to `Cc1nnc(-c2ccc(C)c(NC(=O)c3ccc(OCc4ccccn4)cc3)c2)o1` [Example 38, N-(2-methyl-5-(5-methyl-1,3,4-oxadiazol-2-yl)phenyl)-4-(pyridin-2-ylmethoxy)benzamide] belongs 24.2%. The same measure, in the same setting: to `Cc1ccc(-c2ccnn2C)cc1NC(=O)c1ccc(OCc2ccccn2)cc1` [Example 34, N-[2-methyl-5-(2-methylpyrazol-3-yl)phenyl]-4-(pyridin-2-ylmethoxy)benzamide] belongs 69.4%.

For `O=C(Nc1cc(-c2nc3ccccc3[nH]2)ccc1Cl)c1ccc(OCc2ccccn2)cc1` [Example 106, N-[5-(1H-benzimidazol-2-yl)-2-chlorophenyl]-4-(pyridin-2-ylmethoxy)benzamide], the inhibition at 3 µM came to 81.6%. In general, % Inhibition refers to how much of the control response was suppressed. Consider `Cc1ccc(-c2ccc3cc[nH]c3n2)cc1NC(=O)c1ccc(OCc2ccccn2)cc1` [Example 3, N-[5-(5,7-diazabicyclo[4.3.0]nona-2,4,8,10-tetraen-4-yl)-2-methyl-phenyl]-4-(pyridin-2-ylmethoxy)benzamide], for which the “% Inhibition at 3 μM” value came to 67.3%. The compound `Cc1ccc(-c2ncc[nH]2)cc1NC(=O)c1ccc(OCc2cc(OCCO)ccn2)cc1` [Example 132, N-(5-(1H-imidazol-2-yl)-2-methylphenyl)-4-((4-(2-hydroxyethoxy)pyridin-2-yl)methoxy)benzamide] had an inhibition at 3 µM of 77.1%. Take `Cc1ccc(-c2ncc[nH]2)cc1NC(=O)c1ccc2c(c1)OCCO2` [Example 151, N-[5-(1H-imidazol-2-yl)-2-methyl-phenyl]-2,5-dioxabicyclo[4.4.0]deca-7,9,11-triene-8-carboxamide]: the “% Inhibition at 3 μM” value amounted to 21.9%. Regarding `Cc1ccc(-c2nccn2Cc2ncccc2Br)cc1NC(=O)c1ccc(OCc2ncccc2Br)cc1` [Example 121, 4-[(3-bromopyridin-2-yl)methoxy]-N-(5-{1-[(3-bromopyridin-2-yl)methyl]-1H-imidazol-2-yl}-2-methylphenyl)benzamide], the inhibition at 3 µM worked out at 77.8%. With `Cc1ccc(-c2cn(C)c(C)n2)cc1NC(=O)c1ccc(OCc2ccccn2)cc1` [Example 156, N-[5-(1,2-dimethyl-1H-imidazol-4-yl)-2-methylphenyl]-4-(pyridin-2-ylmethoxy)benzamide], the inhibition at 3 µM was 86.2%. Same read-out and setting: the same measure for `Cc1ccc(-c2cnc(C)n2C)cc1NC(=O)c1ccc(OCc2ccccn2)cc1` [Example 23, N-[5-(1,2-dimethyl-1H-imidazol-5-yl)-2-methylphenyl]-4-(pyridin-2-ylmethoxy)benzamide]: 73.6%. On the same count and under the same terms, the same measure for `Cc1ccc(-c2ncc[nH]2)cc1NC(=O)c1ccc(OCC2CCCCN2C(=O)OC(C)(C)C)cc1` (stereo not shown) [Example 141, tert-butyl 2-((4-(5-(1H-imidazol-2-yl)-2-methylphenylcarbamoyl)phenoxy)methyl)piperidine-1-carboxylate]: 85.3%; for `Cc1ccc(-c2ncc[nH]2)cc1NC(=O)c1ccc(OCc2ncccc2Br)cc1` [Example 120, 4-[(3-bromopyridin-2-yl)methoxy]-N-[5-(1H-imidazol-2-yl)-2-methylphenyl]benzamide]: 78.3%. Still for that read-out and setting: the same measure for `O=C(Nc1cc(-c2ncc[nH]2)ccc1Cl)c1ccc(OCc2ccccn2)cc1` [Example 105, N-[2-chloro-5-(1H-imidazol-2-yl)phenyl]-4-(pyridin-2-ylmethoxy)benzamide]: 82.1%; for `Cc1cnc(-c2ccc(C)c(NC(=O)c3ccc(OCc4ccccn4)cc3)c2)[nH]1` [Example 25, N-[2-methyl-5-(5-methyl-1H-imidazol-2-yl)phenyl]-4-(pyridin-2-ylmethoxy)benzamide]: 79.5%; for `Cc1cc(C)c(-c2cn(C)cn2)cc1NC(=O)c1ccc(OCc2ccccn2)cc1` [Example 71, N-[2,4-dimethyl-5-(1-methyl-1H-imidazol-4-yl)phenyl]-4-(pyridin-2-ylmethoxy)benzamide]: 84.9%. The compound `Cc1cc(-c2nc3ccccc3[nH]2)ccc1NC(=O)c1ccc(OCc2ccccn2)cc1` [Example 31, N-[4-(1H-benzoimidazol-2-yl)-2-methyl-phenyl]-4-(pyridin-2-ylmethoxy)benzamide] came in with an inhibition at 3 µM of 27.9%.

As for `Cc1ccc(-c2nc3ccccc3[nH]2)cc1NC(=O)c1ccc(OCc2ccccn2)cc1` [Example 30, N-[5-(1H-benzoimidazol-2-yl)-2-methyl-phenyl]-4-(pyridin-2-ylmethoxy)benzamide], the inhibition at 3 µM came to 80.1%. Same read-out and setting: to `Cc1ccc(-c2ncc[nH]2)cc1NC(=O)c1ccc(OCc2ccc(F)cc2)cc1` [Example 59, 4-[(4-Fluorophenyl)methoxy]-N-[5-(1H-imidazol-2-yl)-2-methylphenyl]benzamide] belongs 82.5%; to `Cc1ccc(-c2nccn2C)cc1NC(=O)c1ccc(OCc2cc(F)ccc2C#N)cc1` [Example 101, 4-[(2-cyano-5-fluorobenzyl)oxy]-N-[2-methyl-5-(1-methyl-1H-imidazol-2-yl)phenyl]benzamide], 83.5%; to `Cc1ccc(-c2nccn2C)cc1NC(=O)c1ccc(OCc2cc(OCC3CC3)ccn2)cc1` [Example 98, 4-{[4-(cyclopropylmethoxy)pyridin-2-yl]methoxy}-N-[2-methyl-5-(1-methyl-1H-imidazol-2-yl)phenyl]benzamide], 78.4%. `Cc1ccc(-c2ncc[nH]2)cc1NC(=O)c1ccc(Oc2ccccc2)nc1` [Example 145, N-[5-(1H-imidazol-2-yl)-2-methyl-phenyl]-6-phenoxy-pyridine-3-carboxamide]: the inhibition at 3 µM was determined as 67.1%. As for `Cc1ccc(-c2ncc[nH]2)cc1NC(=O)c1ccc(OCc2ccccn2)cc1` [Example 29, N-[5-(1H-imidazol-2-yl)-2-methyl-phenyl]-4-(pyridin-2-ylmethoxy)benzamide], testing at 3 µM gave an inhibition of 75.3%.

Regarding `Cc1ccc(-c2ncc[nH]2)cc1NC(=O)c1ccc(OCc2cccc(OCCN(C)C)n2)cc1` [Example 124, N-(5-(1H-imidazol-2-yl)-2-methylphenyl)-4-((6-(2-(dimethylamino)ethoxy)pyridin-2-yl)methoxy)benzamide], the inhibition at 3 µM amounted to 46.8%.

`COc1ccnc(COc2ccc(C(=O)Nc3cc(-c4ncc[nH]4)ccc3C)cc2)c1OC` [Example 56, 4-[(3,4-dimethoxypyridin-2-yl)methoxy]-N-[5-(1H-imidazol-2-yl)-2-methylphenyl]benzamide] displayed an inhibition at 3 µM of 67.4%.

`Cc1ccc(-c2ncc[nH]2)cc1NC(=O)c1ccc(CCc2ccccn2)cc1` [Example 108, N-[5-(1H-imidazol-2-yl)-2-methylphenyl]-4-(2-pyridin-2-ylethyl)benzamide]: 3 µM produced 92.4% inhibition. `Cc1ccc(-c2ncc[nH]2)cc1NC(=O)c1ccc(OCc2ccccc2)cc1` [Example 58, N-(5-(1H-imidazol-2-yl)-2-methylphenyl)-4-(benzyloxy)benzamide] yielded an inhibition at 3 µM of 86.2%.

The compound `Cc1ccc(-c2ccc(N)nn2)cc1NC(=O)c1ccc(OCc2ccccn2)cc1` [Example 15, N-[5-(6-aminopyridazin-3-yl)-2-methyl-phenyl]-4-(pyridin-2-ylmethoxy)benzamide] had an inhibition at 3 µM of 80.7%. The same measure, in the same setting: to `Cc1ccc(-c2c[nH]cn2)cc1NC(=O)c1ccc(OCc2ccccn2)cc1` [Example 1, N-[5-(1H-imidazol-4-yl)-2-methyl-phenyl]-4-(pyridin-2-ylmethoxy)benzamide] belongs 64.9%. Compound `Cc1ccc(-c2nc(C(C)(C)C)c[nH]2)cc1NC(=O)c1ccc(OCc2ccccn2)cc1` [Example 86, N-[5-(4-tert-butyl-1H-imidazol-2-yl)-2-methylphenyl]-4-(pyridin-2-ylmethoxy)benzamide] yielded an inhibition at 3 µM of 85.7%.

The compound `Cc1ccc(-c2nc(-c3ccc(N4CCCC4)cc3)c[nH]2)cc1NC(=O)c1ccc(OCc2ccccn2)cc1` [Example 83, N-{2-methyl-5-[4-(4-pyrrolidin-1-ylphenyl)-1H-imidazol-2-yl]phenyl}-4-(pyridin-2-ylmethoxy)benzamide] showed an inhibition at 3 µM of 15.1%. Still for that read-out and setting: to `Cc1ccc(-c2ncc[nH]2)cc1NC(=O)c1ccc(C(F)(F)F)nc1C` [Example 147, N-[5-(1H-imidazol-2-yl)-2-methyl-phenyl]-2-methyl-6-(trifluoromethyl)pyridine-3-carboxamide] belongs 19.3%.

As for `Cc1ccc(-c2ncc[nH]2)cc1NC(=O)c1ccc2c(c1)OCCN2C` [Example 149, N-[5-(1H-imidazol-2-yl)-2-methyl-phenyl]-2-methyl-5-oxa-2-azabicyclo[4.4.0]deca-7,9,11-triene-8-carboxamide], the “% Inhibition at 3 μM” value is recorded as 63.4%. In turn, `Cc1ccc(-c2nccn2C)cc1NC(=O)c1ccc(OCc2ccccc2C#N)cc1` [Example 51, 4-[(2-cyanophenyl)methoxy]-N-[2-methyl-5-(1-methylimidazol-2-yl)phenyl]benzamide] gave an inhibition at 3 µM of 82.1%.

Take `Cc1ccc(-c2nnc(C)n2C)cc1NC(=O)c1ccc(OCc2ccccn2)cc1` [Example 39, N-(5-(4,5-dimethyl-4H-1,2,4-triazol-3-yl)-2-methylphenyl)-4-(pyridin-2-ylmethoxy)benzamide]: the inhibition at 3 µM came out at 7.8%.
